# Tests used:
# [1] = Competitive inhibition of rabbit liver guanase assessed as guanine hydrolysis rate by Lineweaver-Burk plot method; parameters: species or system Oryctolagus cuniculus
# [2] = biological target: T1, Guanine deaminase (Homo sapiens, UniProt Q9Y2T3); test: Inhibition of guanase
# T1 sequence (Q9Y2T3 whole entry): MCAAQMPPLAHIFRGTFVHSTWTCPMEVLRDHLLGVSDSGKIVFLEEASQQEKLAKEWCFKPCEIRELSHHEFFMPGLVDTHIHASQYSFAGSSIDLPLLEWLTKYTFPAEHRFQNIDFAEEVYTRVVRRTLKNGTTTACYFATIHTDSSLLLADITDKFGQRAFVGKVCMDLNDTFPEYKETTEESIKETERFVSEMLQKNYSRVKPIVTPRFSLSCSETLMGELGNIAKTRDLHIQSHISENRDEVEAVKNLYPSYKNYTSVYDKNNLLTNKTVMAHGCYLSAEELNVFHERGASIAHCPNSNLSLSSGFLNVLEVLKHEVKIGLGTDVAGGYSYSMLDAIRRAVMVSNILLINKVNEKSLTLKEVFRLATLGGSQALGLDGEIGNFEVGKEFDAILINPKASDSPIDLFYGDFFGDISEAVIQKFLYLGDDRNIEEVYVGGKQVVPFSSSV
compound,measurement,setting,value
O=C1N[C@@H](O)CNc2c1ncn2[C@@H]1O[C@H](CO)[C@@H](O)[C@H]1O,Ki,[1],119 µM
O=C1N[C@H](O)CNc2c1ncn2[C@@H]1O[C@H](CO)[C@@H](O)[C@H]1O,Ki,[1],129 µM
O=C1NC(O)CNc2nc[nH]c21 (racemic) [AZEPINOMYCIN],Ki,[1],2.5 µM
same,IC50,[2],5 µM
